Converted amounts (≈) assume the structure as drawn.
What was measured:
α-amylase (α-AMY) = assay: starch hydrolysis DNS assay with commercial enzyme, absorbance at […] nm; assay type: biochemical
α-glucosidase (α-GLU) = assay: PNPG hydrolysis assay with commercial enzyme, absorbance at […] nm; assay type: biochemical

Structure (SMILES): O=C1c2c(O)cc(O)cc2O[C@H](c2cc(O)c(O)c(O)c2)[C@H]1O [DHM, Dihydromyricetin]
- IC50 (α-amylase (α-AMY)): 4614 µg/mL (≈ 14.4 mM)
- IC50 (α-glucosidase (α-GLU)): 96.12 µg/mL (≈ 0.3 mM)

Source: PMC12111771, “Structural Characterization and Bioactivity Evaluation of Selenium-Modified Dihydromyricetin from Vine Tea” (Foods, 2025)
